Square brackets hold non-standard residues; d marks the D form. Peptide text beside a SMILES is read from it. Phe(4-Cl) = N[C@@H](Cc1ccc(Cl)cc1)C(=O)O; Phe(2-Cl) = N[C@@H](Cc1ccccc1Cl)C(=O)O; Cha = N[C@@H](CC1CCCCC1)C(=O)O
Molecular target: T1, Androgen receptor (Homo sapiens, UniProt P10275)
T1 sequence (P10275 whole entry): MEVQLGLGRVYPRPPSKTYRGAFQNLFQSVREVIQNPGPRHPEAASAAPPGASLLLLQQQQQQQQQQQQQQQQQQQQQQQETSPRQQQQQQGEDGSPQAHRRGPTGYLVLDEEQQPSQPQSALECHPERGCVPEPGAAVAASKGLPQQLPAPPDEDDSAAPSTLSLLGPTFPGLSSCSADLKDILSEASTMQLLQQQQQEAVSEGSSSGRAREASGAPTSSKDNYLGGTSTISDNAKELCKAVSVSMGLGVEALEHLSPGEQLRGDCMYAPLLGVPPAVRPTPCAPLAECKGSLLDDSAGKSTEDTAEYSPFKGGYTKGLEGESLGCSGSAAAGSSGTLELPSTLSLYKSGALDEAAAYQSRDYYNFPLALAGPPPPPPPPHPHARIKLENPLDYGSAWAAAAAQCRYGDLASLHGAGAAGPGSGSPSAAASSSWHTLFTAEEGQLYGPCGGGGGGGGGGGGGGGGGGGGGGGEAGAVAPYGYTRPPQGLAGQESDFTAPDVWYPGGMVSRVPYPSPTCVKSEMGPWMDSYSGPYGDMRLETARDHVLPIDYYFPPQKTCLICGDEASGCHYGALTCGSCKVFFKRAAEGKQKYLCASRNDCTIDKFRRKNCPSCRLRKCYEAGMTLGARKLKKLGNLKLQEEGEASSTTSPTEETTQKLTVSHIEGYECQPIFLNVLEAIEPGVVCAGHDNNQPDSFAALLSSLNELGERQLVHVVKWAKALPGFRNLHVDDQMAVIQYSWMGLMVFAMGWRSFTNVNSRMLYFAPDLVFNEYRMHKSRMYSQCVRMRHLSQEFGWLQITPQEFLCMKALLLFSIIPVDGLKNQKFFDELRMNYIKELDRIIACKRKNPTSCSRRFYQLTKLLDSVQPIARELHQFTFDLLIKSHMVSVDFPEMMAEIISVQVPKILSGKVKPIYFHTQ
Assay: Displacement of fluorescein-CSSRFESLFAGEKESR from human androgen receptor-LBD after 1 hr by fluorescence polarization assay

SMILES | Ki [µM]
CC(C)C[C@H](NC(=O)[C@H](CS)NC(=O)[C@H](C)N)C(=O)N[C@@H](Cc1ccccc1)C(=O)N[C@@H](CC(N)=O)C(=O)N[C@@H](CS)C(=O)N[C@@H](CC(C)C)C(=O)N[C@@H](Cc1ccccc1)C(=O)N[C@@H](CCC(=O)O)C(=O)NCC(=O)N[C@@H](CC(N)=O)C(=O)N[C@@H](CC(=O)O)C(=O)N[C@@H](CCC(=O)O)C(=O)N[C@@H](CCC(=O)O)C(=O)N[C@H](C(=O)N[C@@H](CS)C(=O)N[C@@H](CCCCN)C(=O)N[C@@H](CCC(=O)O)C(=O)N[C@@H](Cc1c[nH]c2ccccc12)C(=O)N[C@@H](CS)C(=O)O)[C@@H](C)O (H-ACLFNCLFEGNDEETCKEWC-OH) | 3
CC(C)C[C@H](NC(=O)[C@H](CS)NC(=O)[C@H](CC(N)=O)NC(=O)[C@H](Cc1ccccc1)NC(=O)[C@H](CCCNC(=N)N)NC(=O)[C@H](CS)NC(=O)[C@H](C)N)C(=O)N[C@@H](Cc1ccccc1)C(=O)N[C@@H](CCC(=O)O)C(=O)NCC(=O)N[C@@H](CC(N)=O)C(=O)N[C@@H](CC(=O)O)C(=O)N[C@@H](CCC(=O)O)C(=O)N[C@@H](CCC(=O)O)C(=O)N[C@H](C(=O)N[C@@H](CS)C(=O)N[C@@H](CCCCN)C(=O)N[C@@H](CCC(=O)O)C(=O)N[C@@H](Cc1c[nH]c2ccccc12)C(=O)N[C@@H](CS)C(=O)O)[C@@H](C)O (H-ACRFNCLFEGNDEETCKEWC-OH) | 12
CC(C)C[C@H](NC(=O)[C@H](CS)NC(=O)[C@H](Cc1ccccc1)NC(=O)[C@H](Cc1ccccc1)NC(=O)[C@H](Cc1ccc(O)cc1)NC(=O)[C@H](CS)NC(=O)[C@H](C)N)C(=O)N[C@@H](Cc1ccccc1)C(=O)N[C@@H](CCC(=O)O)C(=O)NCC(=O)N[C@@H](CC(N)=O)C(=O)N[C@@H](CC(=O)O)C(=O)N[C@@H](CCC(=O)O)C(=O)N[C@@H](CCC(=O)O)C(=O)N[C@H](C(=O)N[C@@H](CS)C(=O)N[C@@H](CCCCN)C(=O)N[C@@H](CCC(=O)O)C(=O)N[C@@H](Cc1c[nH]c2ccccc12)C(=O)N[C@@H](CS)C(=O)O)[C@@H](C)O (H-ACYFFCLFEGNDEETCKEWC-OH) | 4
CC(C)C[C@H](NC(=O)[C@H](CS)NC(=O)[C@H](Cc1cnc[nH]1)NC(=O)[C@H](Cc1ccccc1)NC(=O)[C@H](Cc1ccc(O)cc1)NC(=O)[C@H](CS)NC(=O)[C@H](C)N)C(=O)N[C@@H](Cc1ccccc1)C(=O)N[C@@H](CCC(=O)O)C(=O)NCC(=O)N[C@@H](CC(N)=O)C(=O)N[C@@H](CC(=O)O)C(=O)N[C@@H](CCC(=O)O)C(=O)N[C@@H](CCC(=O)O)C(=O)N[C@H](C(=O)N[C@@H](CS)C(=O)N[C@@H](CCCCN)C(=O)N[C@@H](CCC(=O)O)C(=O)N[C@@H](Cc1c[nH]c2ccccc12)C(=O)N[C@@H](CS)C(=O)O)[C@@H](C)O (H-ACYFHCLFEGNDEETCKEWC-OH) | 7
CC(C)C[C@H](NC(=O)[C@H](CS)NC(=O)[C@H](CC(N)=O)NC(=O)[C@H](Cc1ccccc1)NC(=O)[C@H](Cc1ccc(O)cc1)NC(=O)[C@H](CS)NC(=O)[C@H](C)N)C(=O)N[C@@H](Cc1ccccc1Cl)C(=O)N[C@@H](CCC(=O)O)C(=O)NCC(=O)N[C@@H](CC(N)=O)C(=O)N[C@@H](CC(=O)O)C(=O)N[C@@H](CCC(=O)O)C(=O)N[C@@H](CCC(=O)O)C(=O)N[C@H](C(=O)N[C@@H](CS)C(=O)N[C@@H](CCCCN)C(=O)N[C@@H](CCC(=O)O)C(=O)N[C@@H](Cc1c[nH]c2ccccc12)C(=O)N[C@@H](CS)C(=O)O)[C@@H](C)O (H-ACYFNCL[Phe(2-Cl)]EGNDEETCKEWC-OH) | 3
CC(C)C[C@H](NC(=O)[C@H](CS)NC(=O)[C@@H](NC(=O)[C@H](Cc1ccccc1)NC(=O)[C@H](Cc1ccc(O)cc1)NC(=O)[C@H](CS)NC(=O)[C@H](C)N)C(C)C)C(=O)N[C@@H](Cc1ccccc1)C(=O)N[C@@H](CCC(=O)O)C(=O)NCC(=O)N[C@@H](CC(N)=O)C(=O)N[C@@H](CC(=O)O)C(=O)N[C@@H](CCC(=O)O)C(=O)N[C@@H](CCC(=O)O)C(=O)N[C@H](C(=O)N[C@@H](CS)C(=O)N[C@@H](CCCCN)C(=O)N[C@@H](CCC(=O)O)C(=O)N[C@@H](Cc1c[nH]c2ccccc12)C(=O)N[C@@H](CS)C(=O)O)[C@@H](C)O (H-ACYFVCLFEGNDEETCKEWC-OH) | 3
CC(C)C[C@H](NC(=O)[C@H](CS)NC(=O)[C@H](CC(N)=O)NC(=O)[C@H](CC1CCCCC1)NC(=O)[C@H](Cc1ccc(O)cc1)NC(=O)[C@H](CS)NC(=O)[C@H](C)N)C(=O)N[C@@H](Cc1ccccc1)C(=O)N[C@@H](CCC(=O)O)C(=O)NCC(=O)N[C@@H](CC(N)=O)C(=O)N[C@@H](CC(=O)O)C(=O)N[C@@H](CCC(=O)O)C(=O)N[C@@H](CCC(=O)O)C(=O)N[C@H](C(=O)N[C@@H](CS)C(=O)N[C@@H](CCCCN)C(=O)N[C@@H](CCC(=O)O)C(=O)N[C@@H](Cc1c[nH]c2ccccc12)C(=O)N[C@@H](CS)C(=O)O)[C@@H](C)O (H-ACY[Cha]NCLFEGNDEETCKEWC-OH) | 3

These reach a lower Ki. Values come first.

Ki [µM] | SMILES
0.2 | CC(C)C[C@H](NC(=O)[C@H](CS)NC(=O)[C@H](CC(N)=O)NC(=O)[C@H](Cc1ccccc1)NC(=O)[C@H](Cc1ccc(O)cc1)NC(=O)[C@H](CS)NC(=O)[C@H](C)N)C(=O)N[C@@H](Cc1ccccc1)C(=O)N[C@@H](CCC(=O)O)C(=O)NCC(=O)N[C@@H](CCC(=O)O)C(=O)N[C@@H](CC(=O)O)C(=O)N[C@@H](CCC(=O)O)C(=O)N[C@@H](CCC(=O)O)C(=O)N[C@H](C(=O)N[C@@H](CS)C(=O)N[C@@H](CCCCN)C(=O)N[C@@H](CCC(=O)O)C(=O)N[C@@H](Cc1c[nH]c2ccccc12)C(=O)N[C@@H](CS)C(=O)O)[C@@H](C)O (H-ACYFNCLFEGEDEETCKEWC-OH)
2 | CC(C)C[C@H](NC(=O)[C@H](CS)NC(=O)[C@H](CC(N)=O)NC(=O)[C@H](Cc1ccccc1)NC(=O)[C@H](Cc1ccc(O)cc1)NC(=O)[C@H](CS)NC(=O)[C@H](C)N)C(=O)N[C@@H](Cc1ccccc1)C(=O)N[C@@H](CCC(=O)O)C(=O)NCC(=O)N[C@@H](CC(N)=O)C(=O)N[C@@H](CC(=O)O)C(=O)N[C@@H](CCC(=O)O)C(=O)N[C@@H](CCC(=O)O)C(=O)N[C@H](C(=O)N[C@@H](CS)C(=O)N[C@@H](CCCCN)C(=O)N[C@@H](CCC(=O)O)C(=O)N[C@@H](CCCNC(=N)N)C(=O)N[C@@H](CS)C(=O)O)[C@@H](C)O (H-ACYFNCLFEGNDEETCKERC-OH)
1.7 | CC(C)C[C@H](NC(=O)[C@H](CS)NC(=O)[C@H](CC(N)=O)NC(=O)[C@H](Cc1ccccc1)NC(=O)[C@H](Cc1ccc(O)cc1)NC(=O)[C@H](CS)NC(=O)[C@H](C)N)C(=O)N[C@@H](Cc1ccccc1)C(=O)N[C@@H](CCC(=O)O)C(=O)NCC(=O)N[C@@H](CC(N)=O)C(=O)N[C@@H](CC(=O)O)C(=O)N[C@@H](CCC(=O)O)C(=O)N[C@@H](CCC(=O)O)C(=O)N[C@H](C(=O)N[C@@H](CS)C(=O)N[C@@H](CCCCN)C(=O)N[C@@H](CCC(=O)O)C(=O)N[C@@H](Cc1c[nH]c2ccccc12)C(=O)N[C@@H](CS)C(=O)O)[C@@H](C)O (H-ACYFNCLFEGNDEETCKEWC-OH)
2.3 | CC(C)C[C@H](NC(=O)[C@H](CS)NC(=O)[C@H](CC(N)=O)NC(=O)[C@H](Cc1ccccc1)NC(=O)[C@H](Cc1ccc(O)cc1)NC(=O)[C@H](CS)NC(=O)[C@H](C)N)C(=O)N[C@@H](CC1CCCCC1)C(=O)N[C@@H](CCC(=O)O)C(=O)NCC(=O)N[C@@H](CC(N)=O)C(=O)N[C@@H](CC(=O)O)C(=O)N[C@@H](CCC(=O)O)C(=O)N[C@@H](CCC(=O)O)C(=O)N[C@H](C(=O)N[C@@H](CS)C(=O)N[C@@H](CCCCN)C(=O)N[C@@H](CCC(=O)O)C(=O)N[C@@H](Cc1c[nH]c2ccccc12)C(=O)N[C@@H](CS)C(=O)O)[C@@H](C)O (H-ACYFNCL[Cha]EGNDEETCKEWC-OH)
0.6 | CC(C)C[C@H](NC(=O)[C@H](CS)NC(=O)[C@H](CC(N)=O)NC(=O)[C@H](Cc1ccccc1)NC(=O)[C@H](Cc1ccc(O)cc1)NC(=O)[C@H](CS)NC(=O)[C@H](C)N)C(=O)N[C@@H](Cc1ccc(Cl)cc1)C(=O)N[C@@H](CCC(=O)O)C(=O)NCC(=O)N[C@@H](CC(N)=O)C(=O)N[C@@H](CC(=O)O)C(=O)N[C@@H](CCC(=O)O)C(=O)N[C@@H](CCC(=O)O)C(=O)N[C@H](C(=O)N[C@@H](CS)C(=O)N[C@@H](CCCCN)C(=O)N[C@@H](CCC(=O)O)C(=O)N[C@@H](Cc1c[nH]c2ccccc12)C(=O)N[C@@H](CS)C(=O)O)[C@@H](C)O (H-ACYFNCL[Phe(4-Cl)]EGNDEETCKEWC-OH)
1.4 | CC(C)C[C@H](NC(=O)[C@H](CC(C)C)NC(=O)[C@H](CS)NC(=O)[C@H](CC(N)=O)NC(=O)[C@H](CC(C)C)NC(=O)[C@H](Cc1ccc(O)cc1)NC(=O)[C@H](CS)NC(=O)[C@H](C)N)C(=O)N[C@@H](CCC(=O)O)C(=O)NCC(=O)N[C@@H](CC(N)=O)C(=O)N[C@@H](CC(=O)O)C(=O)N[C@@H](CCC(=O)O)C(=O)N[C@@H](CCC(=O)O)C(=O)N[C@H](C(=O)N[C@@H](CS)C(=O)N[C@@H](CCCCN)C(=O)N[C@@H](CCC(=O)O)C(=O)N[C@@H](Cc1c[nH]c2ccccc12)C(=O)N[C@@H](CS)C(=O)O)[C@@H](C)O (H-ACYLNCLLEGNDEETCKEWC-OH)
